In US20090270397A1, “Methods and compositions for the treatment of cancers, such as melanomas and gliomas” (priority 2008, published 2009):
One block for each molecule: values may come before it.

How the values were obtained:
melanoma cells = experiment: Antifolate agents as enhancers of TMZ, MTT assay (FIG. 7); type: cell-based; conditions: 0.01 uM antifolate in combination with TMZ, 72 h
Procedure: FIG. 7 is a graph presenting the results of tests of several antifolate agents as enhancers of anti-neoplastic activity. […] Cells were treated with the indicated dose of TMZ alone, or in combination with 0.01 uM PYR, MTX (Methotrexate), TMP (Trimethoprim), TMTX (Trimetrexate), PTX (Piritrexim), and CYC (Cycloguanil). Cell growth was assessed by MTT assay after 72 h drug treatment.
Among the six “hits” identified from library screening, both PYR and triamterene are antifolate compounds.

SK-MEL 19 cells = experiment: MTT cell proliferation/viability assay in SK-MEL 19 melanoma cells; type: cell-based, human; conditions: for sensitization to TMZ (effect on TMZ response curve): SK-MEL 19 cells
Procedure: Dose-response diagrams of SKM-19 cells exposed to TMZ (FIG. 2A) or pyrimethamine (PYR) (FIG. 2B) alone were prepared for comparison. Melanoma cells were exposed to the indicated concentration of TMZ or PYR for 72 hours. Cell growth inhibition was evaluated by the MTT assay. Survival relative to the control is presented as mean±standard error of the mean of at least three experiments (with viability of control cells set at 100%). In FIG. 2C, PYR enhances TMZ efficacy in various cancer cell lines. Cells were treated with indicated concentrations of TMZ or PYR at the same time and left for 72 hours. Cell viability was determined by MTT assay. SK-MeI 19, SK-Mel 100, SK-Mel 173, and SK-Mel 192 are melanoma cell lines; LN-18 and T98G are glioma cell lines. * P<0.05, **P<0.01.
(§1) FIGS. 8A-8C. PYR antifolate activity enhances TMZ chemotherapeutic efficacy. A, the growth inhibitory effects of PYR, DDEP, DDMP, CYC, and the classical antifolate MTX on TMZ response curve were examined by MTT assay in melanoma and glioma cells. […] The cytotoxic effect of the combination of TMZ (25 μg/ml) and PYR (0.5 μM) can be rescued by LV (10 μM) as examined by MTT assay (B) and the level of cleaved PARP (C) in SK-MEL 19 cells. 1. Control; 2. TMZ; 3. PYR; 4. TMZ+PYR; and 5. TMZ+PYR+LV. ** P<0.01, compared to 2, 3, or 5.
(§2) The cell growth and cytotoxicity after treatment with TMZ and/or PYR on melanoma cells and glioma cells was performed using Colorimetric MTT assay for cell survival and proliferation assay (MTT Assay Kit, Promega). Tumor cells were seeded at 3000 cells per well (100 μl volume) in 96-well plates and allowed to attach overnight. After TMZ and PYR treatment for 72 hours, the cells were stained with MTT, which is then converted to dark blue formazan crystals by mitochondrial dehydrogenases in viable cells. The plates were read with a microplate reader by measuring the absorbance of converted MTT at 490 nm. Results were expressed as the OD490 relative to that of untreated cells. Cell viability was also determined by the trypan-blue dye exclusion method.

[1] = test system: cleaved PARP in SK-MEL 19 cells; experiment: Leucovorin rescue, cleaved PARP level; type: cell-based, human; conditions: 10 μM LV added to cells treated with TMZ/PYR
Procedure: as §1
Leucovorin (N-5-formyltetrahydrofolate, LV, folinic acid), a reduced form of folate, is used widely to specifically reverse the toxic effects of antifolates (27). To further confirm that PYR-enhanced TMZ chemotherapeutic efficacy in melanoma cells was due to the antifolate activity of PYR, 10 μM LV was added to cells treated with TMZ/PYR. LV rescued both the inhibition of cell growth (FIG. 8B) and the increase in apoptotic death induced by TMZ/PYR as measured by the proteolytic cleavage of PARP by caspase-3 (FIG. 8C).

[2] = Further antifolate agents as enhancers of temozolomide activity (FIGS. 9 and 10); type: cell-based; conditions: FIG. 9
Procedure: FIG. 9 is a further graph presenting the results of tests of several antifolate agents as enhancers of anti-neoplastic activity. In the figure, N1 is pterin-6-carboxylic acid, N2 is aminopterin, N3 is amiloride and N4 is N,N-hexamethylene amiloride.
FIG. 10 presents further data from the testing of additional agents for use in accordance with the invention. Thus, TMZ was administered in combination with compounds S1-S14. The compounds tested are as follows: S1-dipyridamole. S2-methotrexate, S3-minoxidil, S4-prazosin hydrochloride, S5-pyrimethamine, S6-triamterene, S7-trimethoprim, S8-aminopterin, S9-pipemidic acid, S10-piromidic acid, S11-famciclovir, S12-alfuzocin, S13-xanthopterin, and S14-leucopterin.
In FIGS. 9 and 10, additional antifolate agents were tested, and the results indicating their activity as enhancers of TMZ activity are set forth.

[3] = test system: human melanoma cell line SK-MEL 19; experiment: Screening of Spectrum Collection library for enhancers of TMZ-induced growth inhibition (MTT assay); type: cell-based; conditions: SK-MEL19, 1 μM compound in presence of 50 μg/ml TMZ, 96-well plates, read-out: greater growth inhibition relative to TMZ alone
Procedure: FIGS. 1A and 1B. […] Screening was performed with SK-Mel-19 cells in 96-well plates following by MTT assay. Cells in one set of plate were treated with each library compound alone at 1 μM while cells in the parallel plate were treated with a combination of 1 μM library compound and 50 μg/ml TMZ. Positive candidates were later reconfirmed in triplicate.
A commercial library of 2000 drugs and natural products was screened to identify novel compounds that enhance TMZ-induced growth inhibition in the human melanoma cell line SK-MEL 19. Screening was performed in 96-well plates at final compound concentration of 1 μM, in the absence or presence of 50 μg/ml TMZ, followed by MTT assay (FIG. 1A).

[4] = cited from earlier work
SK-MEL 19 = experiment: Cell death by trypan blue dye exclusion; type: cell-based, human; conditions: clinically-relevant concentration of TMZ, PYR 0.5 μM, 72 hours
Procedure: Melanoma cells were exposed to the indicated concentration of TMZ, PYR or both for 72 hours. In FIG. 5A, cell death was evaluated by trypan blue dye exclusion. * P<0.05, compared to 2 or 3. In FIG. 5B, cleaved Caspase-3 was determined by Western blot analysis. 1. Control; 2. TMZ (25 μg/ml); 3. PYR (0.5 μM), and 4. TMZ and PYR combination.
as §2
To investigate whether PYR can enhance the induction of cell death by TMZ, Trypan blue staining was employed to determine the ratio of dead cells versus total cells in SK-MEL 19. […]

[5] = cited from earlier work; remark: listed apart in the source

Structure (SMILES): CC1(C)N=C(N)N=C(N)N1c1ccc(Cl)cc1 [CYC, cycloguanil]
enhancement of TMZ efficacy (melanoma cells): enhance TMZ efficacy

Structure (SMILES): CCc1nc(N)nc(N)c1-c1ccc(Cl)c(Cl)c1 [DDEP, etoprine]
sensitization to TMZ (effect on TMZ response curve) (SK-MEL 19 cells; 0.005 μM antifolate, MTT): significant sensitization to TMZ

Structure (SMILES): Cc1nc(N)nc(N)c1-c1ccc(Cl)c(Cl)c1 [DDMP, metoprine]
sensitization to TMZ (effect on TMZ response curve) (SK-MEL 19 cells; 0.005 μM antifolate, MTT): significant sensitization to TMZ

Structure (SMILES): Nc1nc2c(c(=O)[nH]1)N(C=O)C(CNc1ccc(C(=O)N[C@@H](CCC(=O)O)C(=O)O)cc1)CN2 (some centres unmarked) [LV, N-5-formyltetrahydrofolate]
rescue of inhibition of cell growth induced by TMZ/PYR (SK-MEL 19 cells; 10 μM LV added to cells treated with TMZ (25 μg/ml)/PYR (0.5 μM), MTT): rescued
rescue of increase in apoptotic death induced by TMZ/PYR (proteolytic cleavage of PARP) [1]: rescued

Structure (SMILES): CN(Cc1cnc2nc(N)nc(N)c2n1)c1ccc(C(=O)N[C@@H](CCC(=O)O)C(=O)O)cc1 [MTX, methotrexate]
sensitization to TMZ (effect on TMZ response curve) (SK-MEL 19 cells; 0.001 μM antifolate, MTT): significant sensitization to TMZ
enhancement of TMZ efficacy (melanoma cells): enhance TMZ efficacy

Structure (SMILES): Nc1nc2ncc(C(=O)O)nc2c(=O)[nH]1 [N1, pterin-6-carboxylic acid]
enhancement of the antineoplastic activity of temozolomide [2]: favorable enhancement

Structure (SMILES): N=C(N)NC(=O)c1nc(Cl)c(N)nc1N [N3, amiloride]
enhancement of the antineoplastic activity of temozolomide [2]: favorable enhancement

Structure (SMILES): NC(N)=NC(=O)c1nc(Cl)c(N2CCCCCC2)nc1N [N4, N,N-hexamethylene amiloride]
enhancement of the antineoplastic activity of temozolomide [2]: favorable enhancement

Structure (SMILES): COc1ccc(OC)c(Cc2cnc3nc(N)nc(N)c3c2C)c1 [PTX, Piritrexim]
enhancement of TMZ efficacy (melanoma cells): enhance TMZ efficacy

Structure (SMILES): CCc1nc(N)nc(N)c1-c1ccc(Cl)cc1 [PYR, pyrimethamine]
inhibition at 1 µM [3]: ≥ 50%
blood-brain barrier crossing ([4]; in vivo): easily crosses the blood-brain barrier
oral bioavailability ([4]; oral administration): bioavailable following oral administration

Structure (SMILES): COc1cc(Cc2cnc(N)nc2N)cc(OC)c1OC [TMP, Trimethoprim]
enhancement of TMZ efficacy (melanoma cells): enhance TMZ efficacy

Structure (SMILES): COc1cc(NCc2ccc3nc(N)nc(N)c3c2C)cc(OC)c1OC [TMTX, Trimetrexate]
enhancement of TMZ efficacy (melanoma cells): enhance TMZ efficacy

IC50 (SK-MEL 19 cells; Homo sapiens, SK-MEL19, TMZ alone, SK-MEL-19 cells): ~60 µg/mL
Structure (SMILES): Cn1nnc2c(C(N)=O)ncn2c1=O [TMZ, temozolomide]
cell death (ratio of dead cells versus total cells) (SK-MEL 19): approximately 15%
clinically achievable serum levels during chemotherapy [5]: 100 µM

Structure (SMILES): S=C=NCc1ccccc1 [benzyl isothiocyanate]
inhibition at 1 µM [3]: ≥ 50%

Structure (SMILES): [H]/N=C(\N/C(=N/[H])NCCCCCCNC(=N)NC(=N)Nc1ccc(Cl)cc1)Nc1ccc(Cl)cc1 [chlorhexidine]
inhibition at 1 µM [3]: ≥ 50%

Structure (SMILES): Oc1ccc(Cl)c2cccnc12 [cloxyquin]
inhibition at 1 µM [3]: ≥ 50%

Structure (SMILES): Nc1nc(N)c2nc(-c3ccccc3)c(N)nc2n1 [triamterene]
inhibition at 1 µM [3]: ≥ 50%
